From patent US12667571B2, “Uridine phosphorylase (UPase) inhibitors for treatment of liver conditions” (Tosk, Inc., priority 2019, dated 2026)
“Also recorded” adds a separate entry of the source.

Key:
[1] = test system: C57BL/6 mice fed an MCD diet; assay: Methionine-choline deficient diet (MCD) model of NASH; assay type: in vivo; conditions: end of MCD study; ip bid 28 days
Description: Mice fed an MCD diet is a standard model of diet induced NASH.^47,48 All animals were housed in ventilated standard housing cages throughout the experimental phase. Tap water was provided ad libitum to all animals. Male, 8-week old, C57BL/6 mice from Charles River were acclimated for 3 days maintained on a standard chow diet and group housed in hepa-filtered cages (5 animals per cage) on a normal 12 hours light cycle (at 8 am to 8 pm lights off). The temperature and humidity were 22±2° C. and 50±10%, respectively. Cages litters were changed once a week. ^47 Reid D T, Reyes J L, McDonald B A, Vo T, Reimer R A, Eksteen B. Kupffer Cells Undergo Fundamental Changes during the Development of Experimental NASH and Are Critical in Initiating Liver Damage and Inflammation. PLoS One. 2016, 25; 11:e0159524.^48 Ramadori P, Weiskirchen R, Trebicka J, Streetz K. Mouse models of metabolic liver injury. Lab Anim. 2015; 49(1 Suppl):47-58.
Following acclimation, the animals were randomized into homogenous treatment groups according to their body weight, and fed ad libitum a diet deficient in methionine and choline: 4.2 kcal/g; MP Biomedicals, Solon, OH). Food and water intake were measured 3 times per week (at the same time as body weight measurements). After the acclimation period, the 24 mice (n=6/treatment group) were weighed 3 times per week until sacrifice.
The 4 treatment group were: • Group 1: Vehicle+MCD • Group 2: MCD+200 mg/kg UR • Group 3: MCD+60 mg/kg Compound I • Group 4: MCD+60 mg/kg Compound 1 plus 200 mg/kg UR 30 minutes post Compound 1
All Compound 1 and UR doses (mg/kg in 10 mL/kg of vehicle) were ip, bid at least 8 hours apart, for 28 days. Vehicle=PBS. Vehicle, UR and Compound 1±UR will be dosed daily starting 2 days prior to placing the animals on a MCD diet. Mice were on the MCD diet for 26 days.
After 26 days on MCD, the animals were sacrificed ˜2 hours after the last dose and non-fasted glucose was measured along with a plasma lipid panel, TNF-α, ALT and AST. Total body weight was determined weekly. Total liver was weighed and the medial lobe excised, formalin fixed and stained with Oil Red O to evaluate lipid content. An intensity score for the fixed tissue slides measured by an independent histopathologist was also determined.

[2] = test system: C57BL/6 mice fed an MCD diet; assay: as above; assay type: in vivo; conditions: H&E liver sections, end of MCD study; ip bid 28 days; FIG. 4
[3] = UR, reference 46; cited from earlier work
[4] = Elimination t1/2 of Compound 1 in mice; conditions: mouse, in vivo
[5] = test system: plasma UR; assay: Plasma UR concentration versus plasma Compound 1 concentration after continuous sc osmotic-pump infusion; assay type: in vivo; conditions: BDF-1 male mice, result in words
Description: For this reason continuous infusion of compound I (authentic TK-112690, Batch TCY90108) to BDF-1 ♂ mice were administered via a sc implanted osmotic pumps and the UR plasma concentration measured, ^46 Deng Y, Wang Z V, Gordillo R, An Y, Zhang C, Liang Q, Yoshino J, Cautivo K M, De Brabander J, Elrnquist J K, Horton J D, Hill J A, Klein S, Scherer P E. An adipo-biliary-uridine axis that regulates energy homeostasis. Science 2017, 17; 355(6330)
Solutions of Compound I were prepared at a concentration of 500 mg/mL in sterile PBS. Osmotic pumps (ALZET® micro-osmotic pump 2001 D and 1003D, Alza Co) were loaded with 200 μL (2001D osmotic pump) and/or 100 μL (1003D osmotic pump) of TK-112690 solution.
BDF-1 male mice (n=6) were treated with a constant-rate infusion of 667, 833 or 3000 mg/kg/day doses of Compound I delivered via subcutaneously implanted osmotic pumps. Animals were anesthetized with 100 mg/kg ketamine prior to pump implantation. Surgical scissors were used to make an approximately 1 cm incision on the dorsal surface near the shoulder blade of animals. A hemostat was used to carve out a subcutaneous tunnel toward the anterior end of animal. Osmotic pumps were placed inside the subcutaneous tunnel. […]
A solid-phase extraction (SPE) of analytes (UR, Compound I and 5-FU) from plasma was conducted before HPLC analysis. […] Samples were transferred into fresh HPLC vials and analyzed. […]

half-life [4]	SMILES	ALT [1]	AST [1]	cholesterol [1]	total triglycerides [1]	liver fibrosis scoring compared to vehicle treated controls [2]	elimination t1/2 [3]	effect on plasma UR level [5]
–	O=c1ccn([C@@H]2O[C@H](CO)[C@@H](O)[C@H]2O)c(=O)[nH]1 [UR, uridine]	no difference	no difference	no difference	no difference	statistically different	only a few minutes	–
1 to 2 h	Cc1cn2c(nc1=O)O[C@H]1[C@H](O)[C@@H](CO)O[C@H]12 [Compound 1]	no difference	no difference	no difference	no difference	statistically different	–	elevate plasma UR in a linear fashion; also recorded: associated with higher levels of UR
